Experimental data reported in ChEMBL document CHEMBL3046851, “Synthesis of analogues of monic acids A and C: Potential herbicides and inhibitors of isoleucyl tRNA synthetase” (Bioorg Med Chem Lett, 1996).
Active and inactive are the calls of the source. The rule behind the calls is not given here.

Key:
Spinacia oleracea = test: Inhibition of Spinacia oleracea (spinach) chloroplast isoleucyl tRNA synthetase at 1 uM
Poaceae = test: Herbicidal activity against Poaceae (grass) weeds; format: functional, organism-based
[1] = Herbicidal activity against broadleaf weeds; format: functional

| inhibition (Spinacia oleracea) | SMILES | Activity (Poaceae) | Activity [1] |
| --- | --- | --- | --- |
| inactive | COC(=O)/C=C(\C)Cc1cccc(C[C@H]2O[C@@H]2[C@@H](C)[C@H](C)O)c1 | inactive | inactive |
| inactive | COC(=O)/C=C(/C)Cc1cccc(C/C=C/[C@@H](C)[C@H](C)O)c1 | inactive | inactive |
| inactive | COC(=O)/C=C(\C)Cc1cccc(C/C=C/[C@@H](C)[C@H](C)O)c1 | inactive | inactive |
| inactive | COC(=O)/C=C(\C)Cc1cccc(C[C@@H]2O[C@H]2[C@@H](C)[C@H](C)O)c1 | inactive | inactive |
| inactive | COC(=O)/C=C(/C)Cc1cccc(C[C@@H]2O[C@H]2[C@@H](C)[C@H](C)O)c1 | inactive | inactive |
| 75% | C/C(=C\C(=O)OCCCCCCCCC(=O)O)C[C@@H]1OC[C@H](C[C@@H]2O[C@H]2[C@@H](C)[C@H](C)O)[C@@H](O)[C@H]1O | – | – |
| inactive | CCOC(=O)/C=C(\C)C[C@H]1OC[C@@H](C/C=C/[C@@H](C)[C@H](C)O)CO1 | inactive | inactive |
| inactive | CCOC(=O)c1cccc(-c2cccc(C[C@@H]3O[C@H]3[C@@H](C)[C@H](C)O)c2)c1 | inactive | inactive |

Second part, the molecule before the results:

| SMILES | inhibition (Spinacia oleracea) | Activity (Poaceae) | Activity [1] |
| --- | --- | --- | --- |
| COC(=O)/C=C(/C)Cc1cccc(C[C@H]2O[C@@H]2[C@@H](C)[C@H](C)O)c1 | inactive | inactive | inactive |
| CCOC(=O)/C=C(\C)C[C@H]1OC[C@H](C/C=C/[C@@H](C)[C@H](C)O)CO1 | inactive | inactive | inactive |
| CCOC(=O)c1cccc(-c2cccc(C/C=C/[C@@H](C)[C@H](C)O)c2)c1 | inactive | inactive | inactive |
| CCOC(=O)c1cccc(-c2cccc(C[C@H]3O[C@@H]3[C@@H](C)[C@H](C)O)c2)c1 | inactive | inactive | inactive |
| CCOC(=O)/C=C(/C)C[C@H]1OC[C@H](C/C=C/[C@@H](C)[C@H](C)O)CO1 | inactive | inactive | inactive |
